Data published in US7807703B2, “Substituted aryl ketones” (Bayer CropScience AG, priority 2002, dated 2010).

Experiment: log P determination by reversed-phase HPLC (EEC Directive 79/831 Annex V.A8; acidic or neutral mobile phase)
Type: physicochemical
Conditions: HPLC, reversed-phase C18, 43° C.; acidic range a): 0.1% aqueous phosphoric acid, acetonitrile, linear gradient 10% to 90% acetonitrile
Method in brief: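 Values marked a) used an acidic eluent of 0.1% aqueous phosphoric acid, those marked b) a neutral eluent of 0.01 molar phosphate buffer, each with acetonitrile rising linearly from 10% to 90%. Column C18 at 43° C, following EEC Directive 79/831 Annex V.A8.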

SMILES | logP
COc1c(C(=O)C2C(=O)CC(C)CC2=O)ccc(Cl)c1CN(C)OC (stereo not shown) [Example 482] | (I-2) logP = 3.09^a)
CCN(Cc1c(Cl)ccc(C(=O)C2C(=O)CCCC2=O)c1OC)OC [Example 483] | logP = 3.19^a)
CCN(Cc1c(Cl)ccc(C(=O)C2C(=O)CCC(C)(C)C2=O)c1OC)OC (stereo not shown) [Example 484] | (I-2) logP = 2.30^a)
CCN(Cc1c(Cl)ccc(C(=O)c2cnn(CC)c2O)c1OC)OC [Example 485] | logP = 2.97^a)
CCN(Cc1c(Cl)ccc(C(=O)c2cnn(C)c2O)c1OC)OC [Example 486] | logP = 2.44^a)

Same assay, conditions: HPLC, reversed-phase C 18, 43° C.; acidic range: 0.1% aqueous phosphoric acid, acetonitrile (marked a) or acidic)

SMILES | log P (acidic)
CONCc1c(S(C)(=O)=O)ccc(C(=O)OC)c1Cl [VIII-21] | logPacidic = 1.69
COC(=O)c1ccc(S(C)(=O)=O)c(CN(C)OC)c1Cl [VIII-22] | logPacidic = 2.31
CCN(Cc1c(S(C)(=O)=O)ccc(C(=O)OC)c1Cl)OC [VIII-23] | logPacidic = 2.74
COC(=O)c1ccc(S(C)(=O)=O)c(CN(Cc2ccccc2)OC)c1Cl [VIII-24] | logPacidic = 3.42
COC(=O)c1ccc(S(C)(=O)=O)c(CN(OC)C(C)C)c1Cl [VIII-25] | logPacidic = 3.13
COC(=O)c1ccc(Cl)c(OCCNS(C)(=O)=O)c1C [VIII-26] | logPacidic = 2.14
CCS(=O)(=O)NCCOc1c(Cl)ccc(C(=O)OC)c1C [VIII-27] | logPacidic = 2.37
COC(=O)c1ccc(Br)c(OCCNS(C)(=O)=O)c1C [VIII-28] | logPacidic = 2.20
CCS(=O)(=O)NCCOc1c(Br)ccc(C(=O)OC)c1C [VIII-29] | logPacidic = 2.46
COC(=O)c1ccc(S(C)(=O)=O)c(OCCNS(C)(=O)=O)c1Cl [VIII-30] | logPacidic = 1.56
CCS(=O)(=O)NCCOc1c(S(C)(=O)=O)ccc(C(=O)OC)c1Cl [VIII-31] | logPacidic = 1.75
COC(=O)c1ccc(Br)c(OCCNS(C)(=O)=O)c1Br [VIII-32] | logPacidic = 2.13
COC(=O)c1ccc(S(C)(=O)=O)c(CN(C)OCC2CC2)c1Cl [VIII-33] | logPacidic = 2.98
COC(=O)c1ccc(S(C)(=O)=O)c(CN(CC2CC2)OC)c1Cl [VIII-34] | logPacidic = 3.18
C=CCN(Cc1c(S(C)(=O)=O)ccc(C(=O)OC)c1Cl)OC [VIII-35] | logPacidic = 2.87
CCN(CC)C(=O)CN(Cc1c(S(C)(=O)=O)ccc(C(=O)OC)c1Cl)OC [VIII-36] | logPacidic = 2.28
COC(=O)c1ccc(S(C)(=O)=O)c(CN(OC)C(C)C2CC2)c1Cl (stereo not shown) [VIII-37] | logPacidic = 3.58
COC(=O)c1ccc(S(C)(=O)=O)c(CN(OC)C2CCCC2)c1Cl [VIII-38] | logPacidic = 3.67
COC(=O)c1ccc(S(C)(=O)=O)c(CN(OC)C(C)=O)c1Cl [VIII-39] | logPacidic = 1.58
COC(=O)c1ccc(S(C)(=O)=O)c(CN(OC)C2CCSCC2)c1Cl [VIII-40] | logPacidic = 3.20
COC(=O)c1ccc(S(C)(=O)=O)c(CN(Cc2ccccn2)OC)c1Cl [VIII-41] | logPacidic = 1.17
COC(=O)c1ccc(S(C)(=O)=O)c(CN(Cc2cccnc2)OC)c1Cl [VIII-42] | logPacidic = 1.16
CCON(C)Cc1c(S(C)(=O)=O)ccc(C(=O)OC)c1Cl [VIII-43] | logPacidic = 2.64
CCON(Cc1c(S(C)(=O)=O)ccc(C(=O)OC)c1Cl)C(C)C [VIII-44] | logPacidic = 3.52
COC(=O)c1ccc(S(C)(=O)=O)c(CN(C)OC(C)C)c1Cl [VIII-45] | logPacicic = 2.97
CCN(Cc1c(S(C)(=O)=O)ccc(C(=O)OC)c1Cl)OC(C)C [VIII-46] | logPacidic = 3.39

SMILES | log P (acidic)
COC(=O)c1ccc(S(C)(=O)=O)c(CN(OC(C)C)C(C)C)c1Cl [VIII-47] | logPacidic = 3.86
COC(=O)c1ccc(S(C)(=O)=O)c(CNOC2CCCC2)c1Cl [VIII-48] | logPacidic = 2.93
COC(=O)c1ccc(S(C)(=O)=O)c(CN(C)OC2CCCC2)c1Cl [VIII-49] | logPacidic = 3.48
COC(=O)c1ccc(S(C)(=O)=O)c(CN(OC)C(=O)C(F)(F)F)c1Cl [VIII-50] | logPacidic = 2.60
COC(=O)c1ccc(S(C)(=O)=O)c(CN(OC)C(=O)C(C)C)c1Cl [VIII-51] | logPacidic = 2.21
COC(=O)c1ccc(S(C)(=O)=O)c(CN(OC)C(=O)C2CC2)c1Cl [VIII-52] | logPacidic = 2.02
COC(=O)c1ccc(S(C)(=O)=O)c(CN(CC(=O)N(C)C)OC)c1Cl [VIII-53] | logPacidic = 1.74
COC(=O)c1ccc(S(C)(=O)=O)c(CN(CC2CCOC2)OC)c1Cl (stereo not shown) [VIII-54] | logPacidic = 2.35
CCON(Cc1c(S(C)(=O)=O)ccc(C(=O)OC)c1Cl)CC1CCOC1 (stereo not shown) [VIII-55] | logPacidic = 2.60
COC(=O)c1ccc(S(C)(=O)=O)c(CN(CC2CCOC2)OC2CCCC2)c1Cl (stereo not shown) [VIII-56] | logPacidic = 3.30
COC(=O)c1ccc(S(C)(=O)=O)c(CN(Cc2ccoc2)OC)c1Cl [VIII-57] | logPacidic = 2.91
COC(=O)c1ccc(S(C)(=O)=O)c(CN(OC)C2CCOC2)c1Cl (stereo not shown) [VIII-58] | logPacidic = 2.17
COC(=O)c1ccc(S(C)(=O)=O)c(CN(OC)C2CCCOC2)c1Cl (stereo not shown) [VIII-59] | logPacidic = 2.55
COC(=O)c1ccc(S(C)(=O)=O)c(CN(OC)C2CCOCC2)c1Cl [VIII-60] | logPacidic = 2.38
COCCON(C)Cc1c(S(C)(=O)=O)ccc(C(=O)OC)c1Cl [VIII-61] | logPacidic = 2.26
COC(=O)c1ccc(S(C)(=O)=O)c(CNOCCOc2ccccc2)c1Cl [VIII-62] | logPacidic = 2.93
COC(=O)c1ccc(S(C)(=O)=O)c(CN(C)OCCOc2ccccc2)c1Cl [VIII-63] | logPacidic = 3.37
COC(=O)c1ccc(S(C)(=O)=O)c(CN(C)OCC2CCCO2)c1Cl (stereo not shown) [VIII-64] | logPacidic = 2.51
COC(=O)c1ccc(S(C)(=O)=O)c(CN(C)OCC2CCCCO2)c1Cl (stereo not shown) [VIII-65] | logPacidic = 2.87
COC(=O)c1ccc(Cl)c(CN(C)OC)c1OC [VIII-66] | logPacidic = 2.76
CCN(Cc1c(Cl)ccc(C(=O)OC)c1OC)OC [VIII-67] | logPacidic = 3.43
COC(=O)c1ccc(Cl)c(CN(C)S(C)(=O)=O)c1Cl [VIII-68] | logPacidic = 2.15
COC(=O)c1ccc(S(C)(=O)=O)c(CN(C)S(C)(=O)=O)c1Cl [VIII-69] | logPacidic = 1.65
CCN(Cc1c(Cl)ccc(C(=O)OC)c1OC)S(C)(=O)=O [VIII-71] | logPacidic = 2.38
CCN(Cc1c(S(C)(=O)=O)ccc(C(=O)OC)c1Cl)S(C)(=O)=O [VIII-72] | logPacidic = 1.88
C=CCN(Cc1c(S(C)(=O)=O)ccc(C(=O)OC)c1Cl)S(C)(=O)=O [VIII-73] | logPacidic = 2.03

Same assay, conditions: HPLC, reversed-phase C 18, 43° C.; mobile phase range not marked

SMILES | log P
COC(=O)c1ccc(S(C)(=O)=O)c(CNN2CCNC2=O)c1Cl [VIII-5] | logP = 1.24
CONCc1c(Cl)ccc(C(=O)OC)c1Cl [VIII-6] | logP = 2.26
CCONCc1c(Cl)ccc(C(=O)OC)c1Cl [VIII-7] | logP = 2.77
COC(=O)c1ccc(Cl)c(CN(C)OC)c1Cl [VIII-8] | logP = 3.08
CCN(Cc1c(Cl)ccc(C(=O)OC)c1Cl)OC [VIII-9] | logP = 3.72
CONCc1c(S(C)(=O)=O)ccc(C(=O)OC)c1Cl [VIII-10] | logP = 1.69
CCONCc1c(S(C)(=O)=O)ccc(C(=O)OC)c1Cl [VIII-11] | logP = 2.05
CCON(CC)Cc1c(S(C)(=O)=O)ccc(C(=O)OC)c1Cl [VIII-12] | logP = 3.06
CCONCc1c(Cl)ccc(C(=O)OC)c1OC [VIII-13] | logP = 2.27
CCOC(=O)c1ccc(Cl)c(OCCNS(C)(=O)=O)c1Cl [VIII-14] | logP = 2.24
CCOC(=O)c1ccc(Cl)c(OCCNS(=O)(=O)CC)c1Cl [VIII-15] | logP = 2.61
CCOC(=O)c1ccc(Cl)c(OCCNS(=O)(=O)CCl)c1Cl [VIII-16] | logP = 2.80
CCOC(=O)c1ccc(Cl)c(OCCNS(=O)(=O)CC(F)(F)F)c1Cl [VIII-17] | logP = 3.08
CCOC(=O)c1ccc(Cl)c(OCCNS(=O)(=O)c2cccs2)c1Cl [VIII-18] | logP = 3.20
CCCS(=O)(=O)NCCOc1c(Cl)ccc(C(=O)OCC)c1Cl [VIII-19] | logP = 2.92
CCOC(=O)c1ccc(Cl)c(OCCNS(=O)(=O)C(C)C)c1Cl [VIII-20] | logP = 2.86

Same assay, conditions: reversed-phase C18 HPLC column; HPLC, reversed-phase C 18, 43° C.; acidic range: 0.1% aqueous phosphoric acid, acetonitrile (marked a) or acidic); read-out: log P (acidic)

SMILES | chromatographic logP
CON(Cc1c(S(C)(=O)=O)ccc(C(=O)O)c1Cl)C(C)C [II-3, 2-chloro-4-methylsulphonyl-3-(N-methoxy-N-(1-methylethyl)aminomethyl)benzoic acid] | 2.09
COC(=O)c1ccc(S(C)(=O)=O)c(CN(OC)C(C)C)c1Cl [VIII-3] | 3.13

Same assay, conditions: reversed-phase C18 HPLC column; HPLC, reversed-phase C 18, 43° C.; mobile phase range not marked; read-out: log P

SMILES | chromatographic logP
CON(C)Cc1c(Cl)ccc(C(=O)O)c1Cl [II-1, 2,4-dichloro-3-(N-methoxy-N-methylaminomethyl)benzoic acid] | 1.99
CS(=O)(=O)NCCOc1c(Cl)ccc(C(=O)O)c1Cl [II-2, 2,4-dichloro-3-(2-methylsulphonylaminoethoxy)benzoic acid] | 1.36
COC(=O)c1ccc(Cl)c(CN(C)OC)c1Cl [VIII-1, methyl 2,4-dichloro-3-(N-methoxy-N-methylaminomethyl)benzoate] | 3.08
CCOC(=O)c1ccc(Cl)c(OCCNS(C)(=O)=O)c1Cl [VIII-2, ethyl 2,4-dichloro-3-(2-methylsulphonylaminoethoxy)benzoate] | 2.35
